# Measurements taken from patent publication US20050070468A1, “Use of fk506 and analogues for treating allergic diseases” (SUCAMPO AG, priority 2001, published 2005).
# Tested on: Patients with allergic conjunctivitis
# Experiment: Antigen instillation into the eye of patients with allergic conjunctivitis; itchiness of the eye scored in 9 levels, improvement rate versus base line
# Type: in vivo, human
# Conditions: for improvement (%) of group with pre-administration: once a day for one week, antigen given 16 hr after last instillation; for improvement (%) of group with pre-administration / improvement (%) of group without pre-administration: itchiness 3 min later, proportion of patients with at least 1 point lower itchiness than base line; for improvement (%) of group without pre-administration: single instillation, antigen given 8 hr after instillation
# Protocol: Patients with allergic conjunctivitis (3 groups, 30 patients per group) were instilled with an antigen into the eye. Three minutes later, itchiness of the eye was evaluated in 9 levels (0, 0.5, 1, 1.5, 2, 2.5, 3, 3.5, 4), and the average value (base line group) of itchiness was determined. A specific antigen was determined for each patient. […] At least one week was allowed to lapse from the test of Method 1, and FK506 eye drop (suspension) [0.03%, 0.06% or 0.1%] was instilled into the eye of the patients. At 8 hr after the instillation of the eye drop, the antigen was given. Three minutes later, itchiness of the eye was evaluated in the same manner as in Method 1, and the average value (without pre-administration) of itchiness was determined. […] At least one week was allowed to lapse from the test of Method 2, and FK506 eye drop was instilled into the eye of the patients once a day for one week. At 16 hr after the last instillation of the eye drop, the antigen was given. Three minutes later, itchiness of the eye was evaluated in the same manner as in Method 1, and the average value (with pre-administration) of itchiness was determined.
structure (smiles),measurement,setting,value
"C=CC[C@@H]1/C=C(\C)C[C@H](C)C[C@H](OC)[C@H]2O[C@@](O)(C(=O)C(=O)N3CCCC[C@H]3C(=O)O[C@H](/C(C)=C/[C@@H]3CC[C@@H](O)[C@H](OC)C3)[C@H](C)[C@@H](O)CC1=O)[C@H](C)C[C@@H]2OC [FK506, 17-allyl-1,14-dihydroxy-12-[2-(4-hydroxy-3-methoxycyclohexyl)-1-methylvinyl]-23,25-dimethoxy-13,19,21,27-tetramethyl-11,28-dioxa-4-azatricyclo-[22.3.1.0^4,9]octacos-18-ene-2,3,10,16-tetraone]",improvement rate of the group with pre-administration after 16 hr compared with the group without pre-administration after 8 hr,0.1% concentration groups,markedly higher
same,improvement (%) of group with pre-administration,FK506 eye drop 0.03%,61.54%
same,improvement (%) of group with pre-administration,FK506 eye drop 0.06%,65.52%
same,improvement (%) of group with pre-administration,FK506 eye drop 0.1%,72.41%
same,improvement (%) of group without pre-administration,FK506 eye drop (suspension) 0.03%,25.93%
same,improvement (%) of group without pre-administration,FK506 eye drop (suspension) 0.06%,40.00%
same,improvement (%) of group without pre-administration,FK506 eye drop (suspension) 0.1%,56.67%
same,improvement effect on the itchiness by setting a leading period for pre-administration,"with versus without pre-administration, all concentrations",strikingly enhanced
